What was measured:
[1] = target: T1, Bifunctional epoxide hydrolase 2 (Homo sapiens, UniProt P34913); test: Inhibition of His-tagged human recombinant soluble epoxide hydrolase pre-incubated for 15 mins before Epoxy-fluor7 substrate addition and measured after 20 mins by fluorescence based assay
T1 sequence (P34913 whole entry): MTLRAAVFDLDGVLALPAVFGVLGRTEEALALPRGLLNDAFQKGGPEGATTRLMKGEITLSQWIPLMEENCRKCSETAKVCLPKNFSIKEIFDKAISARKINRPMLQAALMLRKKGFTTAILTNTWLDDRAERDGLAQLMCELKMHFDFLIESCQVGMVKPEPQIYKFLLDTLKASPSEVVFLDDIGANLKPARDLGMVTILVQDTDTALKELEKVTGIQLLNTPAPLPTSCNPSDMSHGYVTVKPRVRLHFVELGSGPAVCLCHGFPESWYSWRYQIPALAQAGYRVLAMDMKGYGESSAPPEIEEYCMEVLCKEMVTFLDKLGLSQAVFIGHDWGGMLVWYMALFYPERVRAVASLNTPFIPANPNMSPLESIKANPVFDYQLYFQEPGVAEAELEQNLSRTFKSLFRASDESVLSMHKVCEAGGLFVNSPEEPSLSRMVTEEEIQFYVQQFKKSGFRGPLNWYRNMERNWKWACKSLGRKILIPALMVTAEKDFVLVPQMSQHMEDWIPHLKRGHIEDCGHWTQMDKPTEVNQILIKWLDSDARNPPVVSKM

[2] = target: Mast/stem cell growth factor receptor Kit (Homo sapiens, UniProt P10721); test: Inhibition of recombinant c-Kit (unknown origin) incubated for 1 hr by ADP-Glo assay
Estrogen receptor = target: T2, Estrogen receptor (Homo sapiens, UniProt P03372); test: Inhibition of His-tagged human ERalpha pre-incubated for 15 mins before fluorescent ligand addition and measured after 1 hr by fluorescence polarization assay
T2 sequence (P03372 whole entry): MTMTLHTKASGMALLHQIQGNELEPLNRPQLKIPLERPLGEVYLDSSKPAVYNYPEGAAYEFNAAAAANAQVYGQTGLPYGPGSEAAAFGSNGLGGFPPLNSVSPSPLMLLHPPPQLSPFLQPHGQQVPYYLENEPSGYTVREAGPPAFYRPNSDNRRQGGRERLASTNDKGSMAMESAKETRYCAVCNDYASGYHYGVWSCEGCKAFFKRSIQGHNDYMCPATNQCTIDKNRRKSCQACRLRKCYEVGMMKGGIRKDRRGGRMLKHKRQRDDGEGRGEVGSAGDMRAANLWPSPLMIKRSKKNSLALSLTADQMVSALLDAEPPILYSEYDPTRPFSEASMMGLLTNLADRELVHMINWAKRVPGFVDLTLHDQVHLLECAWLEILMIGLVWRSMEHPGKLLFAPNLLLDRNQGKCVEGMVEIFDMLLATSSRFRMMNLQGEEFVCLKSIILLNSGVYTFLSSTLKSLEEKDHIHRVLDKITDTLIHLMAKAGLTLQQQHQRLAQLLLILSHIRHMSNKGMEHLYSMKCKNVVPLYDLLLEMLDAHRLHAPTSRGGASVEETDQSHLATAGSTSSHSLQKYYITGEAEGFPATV

Sequence of Mast/stem cell growth factor receptor Kit (P10721 whole entry): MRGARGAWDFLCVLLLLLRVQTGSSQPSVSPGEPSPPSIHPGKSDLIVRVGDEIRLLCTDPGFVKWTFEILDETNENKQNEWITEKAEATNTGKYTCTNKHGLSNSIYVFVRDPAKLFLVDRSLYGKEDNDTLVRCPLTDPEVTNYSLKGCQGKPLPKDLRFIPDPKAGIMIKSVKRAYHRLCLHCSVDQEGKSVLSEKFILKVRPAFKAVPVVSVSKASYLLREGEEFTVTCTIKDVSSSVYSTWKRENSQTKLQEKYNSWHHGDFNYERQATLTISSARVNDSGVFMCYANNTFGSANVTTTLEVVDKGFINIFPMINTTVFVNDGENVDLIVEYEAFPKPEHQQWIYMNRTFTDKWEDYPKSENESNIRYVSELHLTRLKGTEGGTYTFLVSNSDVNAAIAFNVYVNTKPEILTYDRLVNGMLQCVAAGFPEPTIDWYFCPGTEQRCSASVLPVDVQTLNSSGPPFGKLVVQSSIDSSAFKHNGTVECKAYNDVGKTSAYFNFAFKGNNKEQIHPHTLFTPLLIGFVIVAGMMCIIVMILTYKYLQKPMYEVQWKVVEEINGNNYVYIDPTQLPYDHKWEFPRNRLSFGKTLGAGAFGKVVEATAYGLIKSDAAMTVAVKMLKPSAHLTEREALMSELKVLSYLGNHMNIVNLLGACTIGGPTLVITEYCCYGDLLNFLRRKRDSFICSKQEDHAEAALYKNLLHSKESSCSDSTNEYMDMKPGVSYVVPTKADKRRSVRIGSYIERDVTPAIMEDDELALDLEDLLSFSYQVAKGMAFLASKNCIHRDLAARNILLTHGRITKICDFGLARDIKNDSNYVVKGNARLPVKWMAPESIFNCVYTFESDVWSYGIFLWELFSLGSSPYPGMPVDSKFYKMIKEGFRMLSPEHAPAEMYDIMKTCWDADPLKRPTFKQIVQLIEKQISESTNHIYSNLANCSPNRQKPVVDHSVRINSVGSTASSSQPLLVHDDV

IC50 [1] [nM] | IC50 [2] [nM] | IC50 (Estrogen receptor) [nM] | SMILES
2 |  |  | O=C(NC1CCC2CCCC2C1)C1CCCN(S(=O)(=O)c2cccs2)C1 (stereo unspecified)
1 |  |  | O=C(Nc1ccc(Sc2ccccc2Cl)cc1)C1CCN(C(=O)c2ccc(F)cc2)CC1
 | 9 |  | CC(OC(=O)c1ccc2nc(N)sc2c1)C(=O)Nc1ccc(C(C)(C)C)cc1 (stereo unspecified)
 | 21 |  | CC(C)COC(=O)N1CCN(C(=O)C=CC(=O)Nc2ccc(Cl)cc2)CC1
 |  | 20 | CN1c2ccccc2C2(C)CCCC3Cc4cc(Br)cc(Br)c4OC312 (stereo unspecified)
 |  | 8 | Cc1ccccc1C(OC(c1ccccc1C)c1ccccc1C)c1ccccc1C
